{
  "source": "patent US20190209581A1",
  "about": "“DOSAGE REGIMEN FOR TREATMENT OF SOLID TUMORS” (Eli Lilly and Company, priority 2016, published 2019)",
  "key": {"Dogs (beagle)": {"tested_on": "Dogs (beagle)", "assay": "Toxicity study in dogs, oral gavage, daily for 6 days or every other day for 3 doses", "type": "in vivo, dog", "conditions": "for Survival: dogs", "experimental": "A study is carried out to assess the Toxicity and Toxicokinetics of 4,4,4-trifluoro-N-[(1S)-2-[[(7S)-5-(2-hydroxyethyl)-6-oxo-7H-pyrido[2,3-d][3]benzazepin-7-yl]amino]-1-methyl-2-oxo-ethyl]butanamide in dogs given oral gavage doses of 0 or 1.3 mg/kg once daily for 6 days or 0.3 or 3 mg/kg every other day for a total of 3 doses. 4,4,4-Trifluoro-N-[(1S)-2-[[(7S)-5-(2-hydroxyethyl)-6-oxo-7H-pyrido[2,3-d][3]benzazepin-7-yl]amino]-1-methyl-2-oxo-ethyl]butanamide is combined with a vehicle comprising 1% carboxymethylcellulose sodium, 0.25% polysorbate 80 and 0.05% Dow Corning® Antifoam 1510-US in purified water. Dogs (beagle), Covance Research Products, 1 animal/sex/group are fed daily (soon after dosing) and are fasted overnight prior to scheduled chemistry blood collections and necropsy. The test compound is administered by oral gavage in a volume of 2 mL/kg body weight. The duration of the study for all groups is 6 days.\nGroups 01 and 04: At a minimum, observations are recorded daily before dosing, approximately 1 hour postdose, and in the afternoon, with the following exception: afternoon clinical observations are not recorded on weekends.\nGroups 02 and 03: At a minimum, observations are recorded before dosing, approximately 1 hour postdose, and in the afternoon on Days 2 and 6; before dosing and approximately 1 hour postdose on Day 4; and at approximately the same times as Groups 01 and/or 04 on Days 3, 5, and 7.\nAnimals are weighed on Days 1 and 7.\nA qualitative assessment of food consumption is made each day by visual estimation of the amount of food remaining (recorded in increments of 25%).\nGroups 01 and 04: Blood samples are collected before dosing on Day 1 and on Day 7 (not dosed on Day 7).\nGroups 02 and 03: Blood samples are collected before dosing on Days 1 and 6.\nUrine samples are collected from all animals by cystocentesis at the scheduled necropsy."}, "[1]": {"tested_on": "U-87 MG human glioblastoma cell line", "assay": "Tumor growth inhibition, U-87 MG xenograft", "type": "in vivo", "conditions": "U-87 MG in mice, oral 8 mg/kg, (Mon, Wed, Fri)x4; p <0.0001", "experimental": "(§1) To evaluate in vivo efficacy and effect of 4,4,4-Trifluoro-N-[(1S)-2-[[(7S)-5-(2-hydroxyethyl)-6-oxo-7H-pyrido[2,3-d][3]benzazepin-7-yl]amino]-1-methyl-2-oxo-ethyl]butanamide on inhibition of Notch processing pharmacodynamics (PD), several cell lines- and patient-derived xenograft models are used. A2780 is a human ovarian cell line (Sigma-Aldrich, No. 93112519); SW480 is a human colorectal cell line (ATCC No. CCL-228); HCT 116 is a human colorectal cell line (ATCC No. CCL-247); U-87 MG is a human glioblastoma cell line (ATCC No. HTB-14); A375 is a human malignant melanoma cell line (ATCC No. CRL-1619); K-562 is a human chronic myelogenous leukemia (CML) cell line characterized by the presence of a fusion transcript comprised of the Bcr and Abl1 genes (ATCC No. CCL-243); Jurkat; HEL 92.1.7 is a human erythroleukemia cell line (ATCC No. TIB-180). […] Tumor growth and body weight are monitored over time to evaluate efficacy and signs of toxicity. Bidimensional measurements of tumors are performed twice a week and tumor volumes are calculated based on the following formula: (Tumor Volume)=[(L)×(W2)×(Π/6)] where L is mid-axis length and W is mid-axis width. […] The log volume data are analyzed with a two-way repeated measures analysis of variance by time and treatment using the MIXED™ procedures in SAS™ software (version 8.2). […]"}, "[2]": {"tested_on": "K-562 human chronic myelogenous leukemia (CML) cell line", "assay": "Tumor growth inhibition, K-562 xenograft", "type": "in vivo", "conditions": "K-562 in mice, oral 8 mg/kg, (Mon, Wed, Fri)x4; p <0.05 to <0.001", "experimental": "as §1"}, "[3]": {"tested_on": "human colon carcinoma (EL1989)", "assay": "Tumor growth inhibition, patient-derived tumor model EL1989", "type": "in vivo", "conditions": "EL1989 in mice, oral 10 mg/kg (Q2Dx7), 11-days OFF, 8 mg/kg (Mon, Wed, Fri)x3; p <0.0001", "experimental": "as §1"}},
  "note": "“Also recorded” adds a separate entry of the source.",
  "data": [
    {"smiles": "C[C@H](NC(=O)CCC(F)(F)F)C(=O)N[C@@H]1C(=O)N(CCO)c2ncccc2-c2ccccc21", "note": "[Compound 1, 4,4,4-trifluoro-N-[(1S)-2-[[(7S)-5-(2-hydroxyethyl)-6-oxo-7H-pyrido[2,3-d][3]benzazepin-7-yl]amino]-1-methyl-2-oxo-ethyl]butanamide]", "values": [
      {"measurement": "Compound-related signs", "setting": "Dogs (beagle); both, beagle, dog, in vivo, 1.3 mg/kg, 6 days", "result": "lateral recumbency and labored respiration for the female on Day 7, decreased activity for both animals on Days 6 and 7, and dehydration (decreased skin elasticity) for both animals on Day 7"},
      {"measurement": "Food consumption", "setting": "Dogs (beagle); dog, in vivo", "result": "Decreased food consumption also occurred in all compound-treated groups"},
      {"measurement": "Gastrointestinal toxicity, daily versus three times/week at same total weekly dose", "setting": "Dogs (beagle); dog, in vivo", "result": "more severe gastrointestinal toxicity compared to three times/week dosing"},
      {"measurement": "Tolerability of once daily administration at same total weekly dose", "setting": "Dogs (beagle); dog, in vivo", "result": "once daily administration is not tolerated"},
      {"measurement": "Compound-related signs", "setting": "Dogs (beagle); dog, in vivo, 0.3 mg/kg", "result": "mucoid, and watery feces"},
      {"measurement": "Pathology findings", "setting": "Dogs (beagle); dog, in vivo, 0.3 mg/kg", "result": "adverse inflammatory changes in the large intestine and evidence of systemic inflammation"},
      {"measurement": "Intestinal changes", "setting": "Dogs (beagle); dog, in vivo, 1.3 mg/kg", "result": "up to marked mucoid enteropathy with red fluid intestinal contents, erosion, ulceration, and mostly neutrophilic mixed inflammation"},
      {"measurement": "Other symptoms (feces)", "setting": "Dogs (beagle); dog, in vivo, 1.3 mg/kg", "result": "red, dark (female only), mucoid, and watery (female only), feces"},
      {"measurement": "Compound-related signs", "setting": "Dogs (beagle); dog, in vivo, 3 mg/kg", "result": "red (male only), mucoid, and watery (male only), feces"},
      {"measurement": "Survival", "setting": "Dogs (beagle); 1.3 mg/kg daily", "result": "euthanized following 6 daily doses due to poor condition"},
      {"measurement": "Survival", "setting": "Dogs (beagle); 0.3 or 3 mg/kg 3 times/week (Days 2, 4, and 6)", "result": "survived until the scheduled termination; also recorded: survived until the scheduled necropsy"},
      {"measurement": "% TGI", "setting": "[1]", "result": "53.33 (<0.0001) %"},
      {"measurement": "% TGI", "setting": "[2]", "result": "54.96 (<0.05 to %"},
      {"measurement": "% TGI", "setting": "[3]", "result": "70.42 (<0.0001) %"}
    ]}
  ]
}
